Data set [1] concerns the target T1, recombinant soluble epoxide hydrolase (sEH) (Homo sapiens, UniProt P34913).
T1 construct: made in house
T1 sequence (P34913 1-555): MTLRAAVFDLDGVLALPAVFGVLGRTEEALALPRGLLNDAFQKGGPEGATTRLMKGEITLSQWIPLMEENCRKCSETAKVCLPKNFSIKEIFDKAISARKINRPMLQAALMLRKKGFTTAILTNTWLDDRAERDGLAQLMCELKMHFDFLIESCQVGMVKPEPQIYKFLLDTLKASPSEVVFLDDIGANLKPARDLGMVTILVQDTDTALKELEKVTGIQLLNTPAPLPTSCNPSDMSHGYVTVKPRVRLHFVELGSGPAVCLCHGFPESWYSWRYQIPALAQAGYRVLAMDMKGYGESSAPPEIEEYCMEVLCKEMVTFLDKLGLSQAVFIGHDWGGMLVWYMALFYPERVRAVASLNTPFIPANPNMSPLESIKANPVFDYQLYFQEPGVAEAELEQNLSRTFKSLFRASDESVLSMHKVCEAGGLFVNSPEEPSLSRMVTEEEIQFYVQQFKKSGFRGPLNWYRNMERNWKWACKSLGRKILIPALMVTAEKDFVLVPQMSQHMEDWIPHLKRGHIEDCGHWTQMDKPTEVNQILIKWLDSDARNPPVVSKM
Put plainly: Inhibition assay with soluble epoxide hydrolase (PHOME). The format is biochemical. The settings on record: for effect on the activity of recombinant soluble epoxide hydrolase (sEH): 50 μM PHOME. How it is done: The human recombinant soluble epoxide hydrolase (sEH) was expressed and purified as described before.
Pre-incubation with 0.5 µg/mL of sEH and test compounds or 0.1% (v/v) vehicle was performed in 25 mM Tris-HCl buffer (pH 7.0) containing 0.1 mg/mL bovine serum albumin at room temperature for 10 min. Reaction was initiated with 50 μM PHOME, a non-fluorescent compound that is enzymatically converted into fluorescent 6-methoxy-naphtaldehyde, at room temperature for 60 min. Reactions were stopped with 200 mM ZnSO4 and fluorescence signals were recorded at 330 nm/465 nm (ex/em). If required, a possible fluorescence of test compounds was subtracted from the read-out.

In the next data set the target is T2, 5-LOX (Homo sapiens, UniProt P09917).
T2 sequence (P09917 1-674): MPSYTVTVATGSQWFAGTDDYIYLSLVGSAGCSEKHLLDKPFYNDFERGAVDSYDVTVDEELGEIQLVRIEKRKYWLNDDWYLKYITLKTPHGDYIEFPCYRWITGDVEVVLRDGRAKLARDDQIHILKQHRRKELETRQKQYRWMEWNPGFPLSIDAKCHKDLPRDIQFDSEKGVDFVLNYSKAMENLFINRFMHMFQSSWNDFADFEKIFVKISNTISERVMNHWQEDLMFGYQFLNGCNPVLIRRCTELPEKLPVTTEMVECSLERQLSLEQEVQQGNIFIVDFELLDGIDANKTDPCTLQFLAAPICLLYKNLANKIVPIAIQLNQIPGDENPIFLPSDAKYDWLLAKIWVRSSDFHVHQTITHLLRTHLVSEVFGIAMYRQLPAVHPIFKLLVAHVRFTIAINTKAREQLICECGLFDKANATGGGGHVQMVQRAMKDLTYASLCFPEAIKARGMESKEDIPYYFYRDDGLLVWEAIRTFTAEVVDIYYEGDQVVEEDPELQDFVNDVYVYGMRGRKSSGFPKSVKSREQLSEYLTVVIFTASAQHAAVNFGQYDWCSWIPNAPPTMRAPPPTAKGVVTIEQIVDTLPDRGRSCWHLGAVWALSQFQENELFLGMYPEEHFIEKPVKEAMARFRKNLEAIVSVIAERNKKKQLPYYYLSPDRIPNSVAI
Put plainly: 5-LOX product formation from intact PMNs: 5S-HETE (cellular activity of 5-LOX). Format: cell-based. On the set-up: stimulated intact polymorphonuclear neutrophils (PMNs); endogenous in cells; host or cells: human primary polymorphonuclear neutrophils (PMNs) from peripheral blood. The settings on record: for inhibitory effect on the 5-LOX activity (5S-HETE) in PMNs with exogenous AA: 0.5 µM inhibitor, 0–20 µM AA. How it is done: Human primary leukocytes were isolated from peripheral blood of healthy adult volunteers provided by the Institute of Transfusion Medicine at the University Hospital Greifswald as described before. All methods were performed in accordance with the Declaration of Helsinki. In brief, erythrocytes were removed by dextran sedimentation and leukocytes were separated by the density gradient centrifugation on a lymphocyte separation medium (Histopaque®-1077, Merck, Darmstadt, Germany). The remaining erythrocytes were removed by hypotonic lysis using water, and resulting polymorphonuclear neutrophils (PMNs) were resuspended in PBS containing 0.1% (w/v) glucose (PG buffer) or PG buffer with 1 mM CaCl2 (PGC buffer) as indicated. Resulting peripheral blood mononuclear cells (PBMC), including monocytes, were seeded in the RPMI 1640 medium supplemented with 10% (v/v) FCS, 100 U/mL penicillin, 100 µg/mL streptomycin and 2 mM L-glutamine in cell culture flasks (Greiner Bio-one, Frickenhausen, Germany) for 1.5 h at 37 °C and 5% CO2. Adherent monocytes were washed twice with PBS and were finally resuspended in the RPMI 1640 medium as described before.
PMNs (5 × 10^6 cells/mL) were diluted in PGC buffer and pre-incubated with the vehicle (0.1%; v/v) or compounds for 10 min at 37 °C prior to the stimulation with 2.5 µM A23187. After 10 min at 37 °C, treatments were stopped on ice with an equal volume of ice-cold methanol. Next, 530 µL acidified PBS containing 200 ng PGB1 as an internal standard were added to the sample followed by the solid phase extraction with on a RP18 column. […] Formed 5-LOX metabolites were analyzed as described previously.

Setting [2] is: A23187-activated intact PMNs, 5S-HETE formation, read-out: IC50 on the 5-LOX activity (5S-HETE) in PMNs.

pIC50: −log10 of the molar value. Entries after “also recorded” stand apart in the source; their conditions may differ. Like-named read-outs stand apart in the source and are kept apart here.

A word on the pIC50: it is the IC50 on a negative log10 scale, so that one unit is a factor of ten.

As to `Nc1nc(-c2ccc(Cc3ccccc3)cc2)co1` [TTO, 4-(4-benzylphenyl) oxazol-2-amine], in data set [1] (10 µM inhibitor), the “effect on the activity of soluble epoxide hydrolase (sEH) at 10 µM” value is “attenuated”. The “effect on the activity of recombinant soluble epoxide hydrolase (sEH)” value in data set [1] is “at higher concentrations may affect”. Further, the “inhibitory effect on the 5-LOX activity (5S-HETE) in PMNs with exogenous AA” value against 5-LOX is “did not have any inhibitory effects”. The pIC50 on 5-LOX (setting [2]) was 5.64.
On to `Nc1nc(-c2ccc(Cc3ccccc3)cc2)cs1` [ARM1, 4-(4-benzylphenyl) thiazol-2-amine, reference compound], for which the “effect on the activity of recombinant soluble epoxide hydrolase (sEH)” value in data set [1] is “did not have any effect; also recorded: do not affect”. For the same molecule, on 5-LOX (setting [2]), the pIC50 was 5.77.
On to `Nc1nc(-c2ccc(Cc3ccccc3)cc2)c[se]1` [TTSe, 4-(4-benzylphenyl) selenazol-2-amine], for which the “effect on the activity of recombinant soluble epoxide hydrolase (sEH)” value in data set [1] is recorded as “did not have any effect; also recorded: do not affect”. In addition, on 5-LOX, the pIC50 is 5.64 and the “inhibitory effect on the 5-LOX activity (5S-HETE) in PMNs with exogenous AA” value is listed as “did not have any inhibitory effects”.

The record behind these values is paper PMC10145651, “Modulation of the 5-Lipoxygenase Pathway by Chalcogen-Containing Inhibitors of Leukotriene A4 Hydrolase” (International Journal of Molecular Sciences, 2023).
